These results are taken from ChEMBL document CHEMBL1125393, “5-(Aminomethyl)-3-aryldihydrofuran-2(3H)-ones, a new class of monoamine oxidase-B inactivators” (J Med Chem, 1992).

Test [1] addresses T1, Amine oxidase [flavin-containing] B (Bos taurus, UniProt P56560).
T1 sequence (P56560 whole entry): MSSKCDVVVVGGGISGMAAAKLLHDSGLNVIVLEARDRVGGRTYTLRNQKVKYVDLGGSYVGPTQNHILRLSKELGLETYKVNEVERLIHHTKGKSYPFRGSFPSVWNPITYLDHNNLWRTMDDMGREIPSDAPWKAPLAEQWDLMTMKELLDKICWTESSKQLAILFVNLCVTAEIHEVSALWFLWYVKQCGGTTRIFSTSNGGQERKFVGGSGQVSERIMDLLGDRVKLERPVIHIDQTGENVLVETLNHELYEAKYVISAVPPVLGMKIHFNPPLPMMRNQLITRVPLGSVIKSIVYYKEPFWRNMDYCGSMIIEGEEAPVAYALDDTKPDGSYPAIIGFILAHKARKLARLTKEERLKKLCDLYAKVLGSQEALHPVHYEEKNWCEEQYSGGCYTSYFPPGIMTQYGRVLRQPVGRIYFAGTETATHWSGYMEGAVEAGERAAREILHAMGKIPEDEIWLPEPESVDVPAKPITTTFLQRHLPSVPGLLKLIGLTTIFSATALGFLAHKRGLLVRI
The experiment in a line: Inhibitory constant against beef liver mitochondrial monoamine oxidase-B (MAO-B).

Test [2] deals with T1, Amine oxidase [flavin-containing] B. Kind of test: Inactivation constant against beef liver mitochondrial monoamine oxidase-B (MAO-B). The following applies: cattle.

By Ki is commonly meant the equilibrium dissociation constant of an inhibitor or competing ligand from its target. Lower therefore signals tighter binding. One may read the kinact as the rate constant of inactivation at saturating inhibitor. On to `COc1ccc(N2CC(CN)OC2=O)cc1` (stereo not given), for which the affinity in test [1], expressed as Ki, was 12.5 mM. In addition, in test [2], the kinact was 0.0133 s⁻¹.
As for `NC[C@@H]1C[C@H](c2ccccc2)C(=O)O1`, the Ki in test [1] worked out at 4.2 mM. Further, the kinact in test [2] is 0.0428 s⁻¹.
Taken in the same sequence, the figures for `COc1ccc([C@H]2C[C@@H](CN)OC2=O)cc1` were 6.67 mM and 0.074 s⁻¹.
In test [1], `NC[C@@H]1C[C@@H](c2ccccc2)C(=O)O1` came in with a Ki of 5.1 mM. The kinact in test [2] is 0.0357 s⁻¹.
Taken in the same sequence, the figures for `COc1ccc([C@@H]2C[C@@H](CN)OC2=O)cc1` were 18.2 mM and 0.383 s⁻¹.
